Source: US20250302832A1, “PYRAZINE DERIVATIVES AND USES THEREOF” (FOGHORN THERAPEUTICS INC., priority 2022, published 2025)

Experiments:
HiBit-BRM fusion protein = biological target: T1, HiBit-BRM fusion protein (Homo sapiens, UniProt P51531); experiment: HiBiT-BRM cell-based degradation assay (Nano-Glo HiBiT lytic detection, 24 h); details: HeLa cell line expressing HiBiT-BRM; for DC50: read-out: BRM HiBit Degradation IC50
T1 construct: expressed in transfected cells
In short: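 Luminescence from LgBiT complementation quantified remaining HiBiT-BRM in stably expressing HeLa cells after 24 h compound exposure (top final dose 30 μM, 3-fold, 10 points, duplicate). Degradation expressed as percent relative to DMSO and a 2 μM reference degrader.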

[1] = biological target: T2, HiBit-BRG1 fusion protein (Homo sapiens, UniProt P51532); experiment: HiBiT-BRG1 cell-based degradation assay (Nano-Glo HiBiT lytic detection, 24 h); details: HeLa cell line expressing HiBit-BRG1 and LgBit; for Dmax: read-out: BRG1 HiBit Degradation Maximum (%); for DC50: read-out: BRMG1 HiBit Degradation IC50
T2 construct: expressed in transfected cells
T2 sequence (P51532 whole entry, the tested form may be a part): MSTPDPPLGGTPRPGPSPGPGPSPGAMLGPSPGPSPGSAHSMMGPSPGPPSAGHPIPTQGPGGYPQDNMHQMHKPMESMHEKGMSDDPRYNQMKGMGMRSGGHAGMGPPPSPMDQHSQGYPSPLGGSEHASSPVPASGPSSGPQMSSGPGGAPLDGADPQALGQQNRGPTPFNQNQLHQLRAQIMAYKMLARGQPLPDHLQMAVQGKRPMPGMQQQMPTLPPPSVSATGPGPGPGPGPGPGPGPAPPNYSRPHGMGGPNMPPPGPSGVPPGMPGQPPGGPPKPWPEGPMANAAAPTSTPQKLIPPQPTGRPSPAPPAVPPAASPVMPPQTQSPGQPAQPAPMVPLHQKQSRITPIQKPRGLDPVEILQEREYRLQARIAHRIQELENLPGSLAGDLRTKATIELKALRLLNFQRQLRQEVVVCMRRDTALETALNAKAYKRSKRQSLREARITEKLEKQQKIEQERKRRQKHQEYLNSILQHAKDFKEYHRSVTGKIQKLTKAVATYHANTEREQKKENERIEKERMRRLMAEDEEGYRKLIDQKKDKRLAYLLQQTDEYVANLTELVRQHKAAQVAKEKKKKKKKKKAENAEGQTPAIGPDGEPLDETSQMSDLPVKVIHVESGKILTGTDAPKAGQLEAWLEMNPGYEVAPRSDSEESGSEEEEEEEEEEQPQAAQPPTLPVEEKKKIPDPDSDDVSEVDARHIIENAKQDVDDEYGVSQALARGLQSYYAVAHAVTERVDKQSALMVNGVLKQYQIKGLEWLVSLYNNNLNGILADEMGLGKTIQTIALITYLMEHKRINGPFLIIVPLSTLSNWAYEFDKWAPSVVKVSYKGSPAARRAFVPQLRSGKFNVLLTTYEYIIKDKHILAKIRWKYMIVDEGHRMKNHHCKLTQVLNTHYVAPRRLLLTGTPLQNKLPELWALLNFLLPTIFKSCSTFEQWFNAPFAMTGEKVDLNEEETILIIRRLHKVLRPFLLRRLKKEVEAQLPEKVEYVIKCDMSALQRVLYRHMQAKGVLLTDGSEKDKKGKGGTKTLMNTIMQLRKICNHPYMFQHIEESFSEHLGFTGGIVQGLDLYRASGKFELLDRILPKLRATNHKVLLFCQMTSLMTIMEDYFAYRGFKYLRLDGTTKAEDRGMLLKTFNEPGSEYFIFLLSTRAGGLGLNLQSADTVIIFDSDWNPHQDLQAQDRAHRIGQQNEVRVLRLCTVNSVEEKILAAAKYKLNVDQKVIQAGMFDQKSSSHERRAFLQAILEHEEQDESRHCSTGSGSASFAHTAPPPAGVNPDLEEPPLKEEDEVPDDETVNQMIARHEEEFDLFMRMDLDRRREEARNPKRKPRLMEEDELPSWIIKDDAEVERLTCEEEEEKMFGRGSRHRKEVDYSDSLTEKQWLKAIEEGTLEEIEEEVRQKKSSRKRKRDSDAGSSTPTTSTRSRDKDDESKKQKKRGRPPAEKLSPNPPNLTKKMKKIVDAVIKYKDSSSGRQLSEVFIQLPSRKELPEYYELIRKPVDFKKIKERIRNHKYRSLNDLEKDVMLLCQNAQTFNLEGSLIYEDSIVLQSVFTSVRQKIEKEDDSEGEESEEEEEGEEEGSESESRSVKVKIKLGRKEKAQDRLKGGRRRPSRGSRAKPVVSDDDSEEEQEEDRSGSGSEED
In short: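 Luminescence from HiBiT/LgBiT complementation after lytic detection reagent was read following 24 h compound exposure of HeLa cells stably carrying HiBiT-BRG1 plus LgBiT (5000 cells/well). Signal scaled to % degradation using DMSO-treated cells as 0% and cells given 2 μM known BRM/BRG1 degrader as 100%.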

T1 sequence (P51531 whole entry, the tested form may be a part): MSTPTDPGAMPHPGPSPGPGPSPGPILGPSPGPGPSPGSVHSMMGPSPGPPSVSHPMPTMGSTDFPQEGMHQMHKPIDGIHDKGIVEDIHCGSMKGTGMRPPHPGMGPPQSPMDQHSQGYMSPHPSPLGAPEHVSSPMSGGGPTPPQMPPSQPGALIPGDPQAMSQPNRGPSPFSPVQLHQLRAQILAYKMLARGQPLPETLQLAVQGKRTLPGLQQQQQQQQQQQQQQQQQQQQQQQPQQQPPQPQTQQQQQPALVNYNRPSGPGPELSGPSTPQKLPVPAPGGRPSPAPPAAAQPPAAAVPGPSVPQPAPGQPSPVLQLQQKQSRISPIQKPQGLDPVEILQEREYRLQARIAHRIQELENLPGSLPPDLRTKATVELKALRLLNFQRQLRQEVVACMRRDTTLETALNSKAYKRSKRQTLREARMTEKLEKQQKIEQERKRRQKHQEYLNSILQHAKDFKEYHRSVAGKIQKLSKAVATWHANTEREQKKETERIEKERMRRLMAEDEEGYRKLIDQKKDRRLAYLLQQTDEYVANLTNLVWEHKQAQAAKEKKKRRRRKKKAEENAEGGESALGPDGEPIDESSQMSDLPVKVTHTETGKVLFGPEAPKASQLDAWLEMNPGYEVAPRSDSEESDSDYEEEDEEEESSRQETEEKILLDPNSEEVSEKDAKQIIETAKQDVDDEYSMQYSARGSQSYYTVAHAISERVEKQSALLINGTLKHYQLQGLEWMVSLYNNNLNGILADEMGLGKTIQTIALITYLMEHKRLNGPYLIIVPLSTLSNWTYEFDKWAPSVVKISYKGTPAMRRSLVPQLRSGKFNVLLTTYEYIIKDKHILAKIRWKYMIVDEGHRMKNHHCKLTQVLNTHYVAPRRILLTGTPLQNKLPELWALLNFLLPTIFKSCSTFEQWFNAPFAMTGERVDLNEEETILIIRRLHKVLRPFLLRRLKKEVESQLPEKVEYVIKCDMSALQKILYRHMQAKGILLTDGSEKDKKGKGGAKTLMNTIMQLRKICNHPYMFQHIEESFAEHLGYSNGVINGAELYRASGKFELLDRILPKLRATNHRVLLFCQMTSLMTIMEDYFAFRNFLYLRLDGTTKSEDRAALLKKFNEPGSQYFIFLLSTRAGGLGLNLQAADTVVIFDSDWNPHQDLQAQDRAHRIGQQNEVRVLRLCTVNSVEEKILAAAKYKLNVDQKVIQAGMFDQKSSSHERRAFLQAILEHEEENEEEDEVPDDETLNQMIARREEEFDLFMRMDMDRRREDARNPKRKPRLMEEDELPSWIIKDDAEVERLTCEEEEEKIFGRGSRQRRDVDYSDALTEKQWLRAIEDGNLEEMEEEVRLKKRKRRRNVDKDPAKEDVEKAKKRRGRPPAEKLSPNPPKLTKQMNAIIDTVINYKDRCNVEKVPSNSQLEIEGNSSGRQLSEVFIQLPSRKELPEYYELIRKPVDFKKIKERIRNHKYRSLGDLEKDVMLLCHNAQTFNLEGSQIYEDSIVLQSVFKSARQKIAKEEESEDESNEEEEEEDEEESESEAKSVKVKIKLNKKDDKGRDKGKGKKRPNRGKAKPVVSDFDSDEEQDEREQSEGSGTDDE

DC50 (HiBit-BRM fusion protein) [nM] | Dmax [1] [%] | DC50 [1] [nM] | SMILES | BRM HiBit Degradation Maximum (%) (HiBit-BRM fusion protein) | BRG1 HiBit Degradation Maximum (%) [1]
< 10 | < 50 |  | Cc1ncsc1-c1ccc([C@H](C)NC(=O)[C@@H]2C[C@@H](O)CN2C(=O)[C@@H](c2cc(-c3cnc(N4CC[C@@H](c5cc6nnc(-c7cc(F)cc(F)c7O)cc6n5C5CC5)C4)nc3)no2)C(C)C)cc1 [Compound 111, (2S,4R)-1-((R)-2-(3-(2-((R)-3-(5-cyclopropyl-3-(3,5-difluoro-2-hydroxyphenyl)-5H-pyrrolo[3,2-c]pyridazin-6-yl)pyrrolidin-1-yl)pyrimidin-5-yl)isoxazol-5-yl)-3-methylbutanoyl)-4-hydroxy-N-((S)-1-(4-(4-methylthiazol-5-yl)phenyl)ethyl)pyrrolidine-2-carboxamide] | A (“A” indicates maximum degradation ≥75%) | 
> 10 | < 50 |  | Cc1ncsc1-c1ccc([C@H](C)NC(=O)[C@@H]2C[C@@H](O)CN2C(=O)[C@H](c2cc(-c3cnc(N4CCN(c5cc6nnc(-c7ccccc7O)cc6n5C)CC4)nc3)no2)C(C)C)cc1 [Compound 29, (2S,4R)-4-hydroxy-1-[(2S)-2-[3-(2-{4-[3-(2-hydroxyphenyl)-5-methylpyrrolo[3,2-c]pyridazin-6-yl]piperazin-1-yl}pyrimidin-5-yl)-1,2-oxazol-5-yl]-3-methylbutanoyl]-N-[(1S)-1-[4-(4-methyl-1,3-thiazol-5-yl)phenyl]ethyl]pyrrolidine-2-carboxamide] | A (“A” indicates maximum degradation ≥75%) | 
> 10 | < 50 |  | CC(C)C(C(=O)N1C[C@H](O)C[C@H]1C(=O)NC12CC(C1)C2)c1cc(N2CC3(CC(c4cc5nnc(-c6ccccc6O)cc5n4C4CCC4)C3)C2)no1 (stereo partly drawn) [Compound 120, (2S,4R)-N-(bicyclo[1.1.1]pentan-1-yl)-1-(2-(3-(6-(5-cyclobutyl-3-(2-hydroxyphenyl)-5H-pyrrolo[3,2-c]pyridazin-6-yl)-2-azaspiro[3.3]heptan-2-yl)isoxazol-5-yl)-3-methylbutanoyl)-4-hydroxypyrrolidine-2-carboxamide] | A (“A” indicates maximum degradation ≥75%) | 
< 10 | < 50 |  | Cc1ncsc1-c1ccc([C@H](C)NC(=O)[C@@H]2C[C@@H](O)CN2C(=O)[C@H](c2cc(-c3cnc(N4CCC(c5cc6nnc(-c7ccccc7O)cc6n5C(C)C)CC4)nc3)no2)C(C)C)cc1 [Compound 44] | B (“B” indicates maximum degradation ≥50%) | 
> 10 | < 50 |  | CC(C)C(C(=O)N1C[C@H](O)C[C@H]1C(=O)N[C@@H](C)c1ccccc1)c1cc(N2CC3(CC(c4cc5nnc(-c6ccccc6O)cc5n4C4CCC4)C3)C2)no1 (stereo partly drawn) [Compound 49, (2S,4R)-1-[2-(3-{6-[5-cyclobutyl-3-(2-hydroxyphenyl)pyrrolo[3,2-c]pyridazin-6-yl]-2-azaspiro[3.3]heptan-2-yl}-1,2-oxazol-5-yl)-3-methylbutanoyl]-4-hydroxy-N-[(1S)-1-phenylethyl]pyrrolidine-2-carboxamide] | A (“A” indicates maximum degradation ≥75%) | 
> 10 | < 50 |  | CC(C)C(C(=O)N1C[C@H](O)C[C@H]1C(=O)NC1CC1)c1cc(N2CC3(CC(c4cc5nnc(-c6ccccc6O)cc5n4C4CCC4)C3)C2)no1 (stereo partly drawn) [Compound 56, (2S,4R)-1-(2-(3-(6-(5-cyclobutyl-3-(2-hydroxyphenyl)-5H-pyrrolo[3,2-c]pyridazin-6-yl)-2-azaspiro[3.3]heptan-2-yl)isoxazol-5-yl)-3-methylbutanoyl)-N-cyclopropyl-4-hydroxypyrrolidine-2-carboxamide] | A (“A” indicates maximum degradation ≥75%) | 
> 10 | < 50 |  | Cc1ncsc1-c1ccc([C@H](C)NC(=O)[C@@H]2C[C@@H](O)CN2C(=O)[C@@H](c2cc(-c3cc(N4CC[C@@H](c5cc6nnc(-c7ccccc7O)cc6n5C5CC5)C4)ccn3)no2)C(C)C)cc1 (single isomer, unassigned) [Compound 91] | A (“A” indicates maximum degradation ≥75%) | 
< 10 | > 50 | > 10 | Cc1ncsc1-c1ccc([C@H](C)NC(=O)[C@@H]2C[C@@H](O)CN2C(=O)[C@@H](c2cc(N3CCC4(CC[C@H](c5cc6nnc(-c7ccccc7O)cc6n5C5CC5)C4)CC3)no2)C(C)C)cc1 [Compound 96, (2S,4R)-1-((R)-2-(3-((S)-2-(5-cyclopropyl-3-(2-hydroxyphenyl)-5H-pyrrolo[3,2-c]pyridazin-6-yl)-8-azaspiro[4.5]decan-8-yl)isoxazol-5-yl)-3-methylbutanoyl)-4-hydroxy-N-((S)-1-(4-(4-methylthiazol-5-yl)phenyl)ethyl)pyrrolidine-2-carboxamide] | A (“A” indicates maximum degradation ≥75%) | 
> 10 | < 50 |  | CC(C)[C@@H](C(=O)N1C[C@H](O)C[C@H]1C(=O)N[C@@H](C)c1ccc(F)cc1)c1cc(N2CC3(CC(c4cc5nnc(-c6ccccc6O)cc5n4C4CCC4)C3)C2)no1 [Compound 63, (2S,4R)-1-((R)-2-(3-(6-(5-cyclobutyl-3-(2-hydroxyphenyl)-5H-pyrrolo[3,2-c]pyridazin-6-yl)-2-azaspiro[3.3]heptan-2-yl)isoxazol-5-yl)-3-methylbutanoyl)-N-((S)-1-(4-fluorophenyl)ethyl)-4-hydroxypyrrolidine-2-carboxamide] | A (“A” indicates maximum degradation ≥75%) | 
 | < 50 |  | Cc1ncsc1-c1ccc([C@H](C)NC(=O)[C@@H]2C[C@@H](O)CN2C(=O)[C@H](c2cc(-c3cnc(N4CCC(c5cc6nnc(-c7ccccc7O)cc6n5C5CC5)CC4)nc3)no2)C(C)C)cc1 [Compound 26, (2S,4R)-1-[(2S)-2-[3-(2-{4-[5-cyclopropyl-3-(2-hydroxyphenyl)pyrrolo[3,2-c]pyridazin-6-yl]piperidin-1-yl}pyrimidin-5-yl)-1,2-oxazol-5-yl]-3-methylbutanoyl]-4-hydroxy-N-[(1S)-1-[4-(4-methyl-1,3-thiazol-5-yl)phenyl]ethyl]pyrrolidine-2-carboxamide] | C (“C” indicates maximum degradation <50%) | 
< 10 | > 75 | < 10 | Cc1ncsc1-c1ccc([C@H](C)NC(=O)[C@@H]2C[C@@H](O)CN2C(=O)[C@@H](c2cc(-c3cnc(N4CC[C@@H](c5cc6nnc(-c7ccccc7O)cc6n5C5CC5)C4)nc3)no2)C(C)C)cc1 [Compound 36, (2S,4R)-1-((R)-2-(3-(2-((R)-3-(5-cyclopropyl-3-(2-hydroxyphenyl)-5H-pyrrolo[3,2-c]pyridazin-6-yl)pyrrolidin-1-yl)pyrimidin-5-yl)isoxazol-5-yl)-3-methylbutanoyl)-4-hydroxy-N—((S)-1-(4-(4-methylthiazol-5-yl)phenyl)ethyl)pyrrolidine-2-carboxamide] | A (“A” indicates maximum degradation ≥75%) | 
< 10 | > 50 | > 10 | CCn1c(C2CCN(c3ncc(-c4cc([C@H](C(=O)N5C[C@H](O)C[C@H]5C(=O)N[C@@H](C)c5ccc(-c6scnc6C)cc5)C(C)C)on4)cn3)CC2)cc2nnc(-c3ccccc3O)cc21 [Compound 23, (2S,4R)-1-[(2R)-2-[3-(2-{4-[5-ethyl-3-(2-hydroxyphenyl)pyrrolo[3,2-c]pyridazin-6-yl]piperidin-1-yl}pyrimidin-5-yl)-1,2-oxazol-5-yl]-3-methylbutanoyl]-4-hydroxy-N-[(1S)-1-[4-(4-methyl-1,3-thiazol-5-yl)phenyl]ethyl]pyrrolidine-2-carboxamide] | A (“A” indicates maximum degradation ≥75%) | 
< 10 | < 50 |  | CC(C)[C@@H](C(=O)N1C[C@H](O)C[C@H]1C(=O)N[C@@H](C)c1ccccc1)c1cc(-c2cnc(N3CC[C@H](c4cc5nnc(-c6ccccc6O)cc5n4C4CC4)C3)nc2)no1 [Compound 93, (2S,4R)-1-((R)-2-(3-(2-((S)-3-(5-cyclopropyl-3-(2-hydroxyphenyl)-5H-pyrrolo[3,2-c]pyridazin-6-yl)pyrrolidin-1-yl)pyrimidin-5-yl)isoxazol-5-yl)-3-methylbutanoyl)-4-hydroxy-N-((S)-1-phenylethyl)pyrrolidine-2-carboxamide] | A (“A” indicates maximum degradation ≥75%) | 
< 10 |  |  | Cc1ncsc1-c1ccc([C@H](C)NC(=O)[C@@H]2C[C@@H](O)CN2C(=O)[C@@H](c2cc(-c3cnc(N4CCC(c5cc6nnc(-c7ccccc7O)cc6n5C5CCC5)CC4)nc3)no2)C(C)C)cc1 [Compound 47] | A (“A” indicates maximum degradation ≥75%) | C (“C” indicates maximum degradation <50%)
< 10 | > 50 | > 10 | Cc1ncsc1-c1ccc([C@H](C)NC(=O)[C@@H]2C[C@@H](O)CN2C(=O)[C@@H](c2cc(-c3cnc(N4CC[C@H](c5cc6nnc(-c7ccccc7O)cc6n5CC5CC5)C4)nc3)no2)C(C)C)cc1 [Compound 115, (2S,4R)-1-((R)-2-(3-(2-((S)-3-(5-(cyclopropylmethyl)-3-(2-hydroxyphenyl)-5H-pyrrolo[3,2-c]pyridazin-6-yl)pyrrolidin-1-yl)pyrimidin-5-yl)isoxazol-5-yl)-3-methylbutanoyl)-4-hydroxy-N-((S)-1-(4-(4-methylthiazol-5-yl)phenyl)ethyl)pyrrolidine-2-carboxamide] | A (“A” indicates maximum degradation ≥75%) | 
